Earlier results, collected in US20160015722A1, “TREATMENT OF ENDOMETRIOSIS” (priority 2014, published 2016).

Test system: FSH (Follicle Stimulating Hormone) and LH (Leutinizing Hormone) release from the pituitary
Settings: for FSH and LH release from the pituitary gland: previous hormonal treatments of endometriosis

| Compound | FSH and LH release from the pituitary gland | FSH and LH release from the pituitary (nandrolone used alone) |
| --- | --- | --- |
| luprolide acetate | suppress |  |
| C#C[C@]1(O)CC[C@H]2[C@@H]3CCC4=Cc5oncc5C[C@]4(C)[C@H]3CC[C@@]21C [danazol] | suppress |  |
| C[C@]12CC[C@H]3[C@@H](CCC4=CC(=O)CC[C@@H]43)[C@@H]1CC[C@@H]2O [Nandrolone, nandrolone] |  | suppresses |
